Tested on: LTB4 Synthesis
Assay: Reverse Passive Arthus Reaction (pleurisy), LTB4 in pleural exudate
Type: in vivo, rat (male Lewis)
Conditions: p.o.
Description: 3. Reverse Passive Arthus Reaction
A reverse passive Arthus reaction is induced in the pleural cavity of male Lewis rats (150-200 g; fasted overnight prior to use) by the intravenous administration of bovine serum albumin (BSA; 4 mg/0.2 ml) followed 30 minutes later by the injection of rabbit anti-BSA (1 mg/0.2 ml; lyophilized IgG fraction; Organon Teknika, West Chester, Pa.) into the right pleural space under halothane anesthesia. Drugs or vehicle (0.5% Tween-80) control are administered orally in a volume of 1 ml/100 g body weight at 1 hour prior to the anti-BSA. Animals are sacrificed at either the time of peak eicosanoid production (i.e. 5 minutes after anti-BSA for immunoreactive TxB2, 10 minutes for immunoreactive LTB4, 20 minutes for immunoreactive LTC4) or at the time of peak neutrophil infiltration (4 hours after anti-BSA) by CO2 inhalation. The pleural cavity is then exposed., the fluid exudate removed by gentle vacuum aspiration and the volume of exudate is recorded. For the determination of cellular infiltration, the pleural cavity is rinsed with 3 ml of 0.1% EDTA in sterile saline, and the recovered wash is pooled with the exudate. Cell number is determined on a model ZBI Coulter counter. For determination of eicosanoid production, undiluted pleural exudate is microfuged and the supernatant is extracted with ethanol (8-10 times volume). Extracts are either stored at -20° C., or are evaporated to dryness under a stream of N2 and reconstituted in radioimmunoassay (RIA) buffer.
Eicosanoids are quantitated by RIA according to the procedure specified by the RIA kit manufacturer (Advanced Magnetics, Cambridge, Mass.). Briefly, 100 μl of ^3 H-labeled eicosanoid and 100 μl of specific antibody are sequentially added to 100 μl of extracted pleural exudate in BGG-phosphate buffer which contains 0.01M phosphate, 0.1% bovine gamma globulin and 0.1% sodium azide at pH 7.0. Antibody-bound eicosanoid is separated from unbound eicosanoid by the addition of 750 μl of dextran (0.4%)-coated charcoal (Norit A) containing 0.1% sodium azide. The mixture is centrifuged at 2000 RPM at 5° C. for 15 minutes to pellet the charcoal and adsorbed unbound eicosanoid. Antibody-bound labeled eicosanoid is quantitated by counting in a liquid scintillation counter, and is correlated to concentration by a standard curve.

SMILES	% Inhibition LTB4 Synthesis (10 mg/kg) [%]	% Inhibition LTB4 Synthesis (25 mg/kg) [%]
Cc1oc(-c2ccc(F)cc2)nc1COc1cccc(CN(O)C(N)=O)c1 [Example 9, 1-[3-[2-(4-fluorophenyl)-5-methyl-oxazol-4-ylmethoxy]-benzyl]-1-hydroxy-urea]	27	
Cc1oc(-c2ccccc2)nc1COc1cc(F)cc(CN(O)C(N)=O)c1 [Example 13, 1-[3-Fluoro-5-(5-methyl-2-phenyl-oxazol-4-ylmethoxy)-benzyl]-1-hydroxy-urea]	17	
Cc1oc(-c2ccccc2)nc1COc1cccc(CN(O)C(N)=O)c1 [Example 1, 1-Hydroxy-1-[3-(5-methyl-2-phenyl-oxazol-4-ylmethoxy)-benzyl]-urea]		79
NC(=O)N(O)Cc1cccc(OCc2csc(-c3ccccc3)n2)c1 [Example 5, 1-Hydroxy-1-[3-(2-phenyl-thiazol-4-ylmethoxy)-benzyl]-urea]	43	

— patent publication US5468760A, “Aralkyl-N-hydroxyureas as inhibitors of 5-lipoxygenase and oxidation of low density lipoprotein” (American Home Products Corporation, priority 1993, dated 1995)
